This passage reports IC50 results from patent US20100256137A1, “INDAZOLAMIDE DERIVATIVES” (MERCK PATENT GESELLSCHAFT MIT BESCHRANKTER HAFTUNG, priority 2007, published 2010).

This experiment concerns the target T1, Recombinant human HSP90a (Homo sapiens, UniProt P07900).
T1 construct: host or cells: E. coli
Description: HSP90 radioligand filter binding test ([3H]17AAG competition). The settings on record: [3H]17AAG 0.08 μM, HSP90 1.5 μg/assay, 22° C., 30 min, pH 7.0; read-out: IC50 (HSP90 inhibition). Here is the method:
In the specific case, a radioligand filter binding test is used. The radioligand used here is tritium-labelled 17-allylaminogeldanamycin, [3H]17AAG. This filter binding test allows a targeted search for inhibitors which interfere with the ATP binding site.
HEPES filter buffer (50 mM HEPES, pH 7.0, 5 mM MgCl2, BSA 0.01%)
Multiscreen FB (1 μm) filter plate (Millipore, MAFBNOB 50).
The 96-well microtitre filter plates are firstly irrigated and coated with 0.1% of polyethylenimine.
The test is carried out under the following conditions:
Reaction temperature 22° C.
Reaction time: 30 min., shaking at 800 rpm
50 mM HEPES HCl, pH 7.0, 5 mM MgCl2, 0.01% (w/v) of BSA
At the end of the reaction, the supernatant in the filter plate is removed by suction with the aid of a vacuum manifold (Multiscreen Separation System, Millipore), and the filter is washed twice.
The filter plates are then measured in a beta counter (Microbeta, Wallac) with scintillator (Microscint 20, Packard).
“% of control” is determined from the “counts per minutes” values, and the IC-50 value of a compound is calculated therefrom.
Take `Cc1cccc(Cc2n[nH]c3cc(O)c(C(=O)N4Cc5ccccc5C4)cc23)c1` [Compound A1, 5-(1,3-dihydroisoindol-2-ylcarbonyl)-3-(3-methylbenzyl)-6-hydroxy-1H-indazole]: the IC50 (usually the concentration that gives 50% inhibition) lay in the range of 10 to 1000 nM.

Turning to `Cc1cccc(Cc2n[nH]c3cc(O)c(C(=O)N4CCc5ccccc5C4)cc23)c1` [Compound A2], the half-maximal inhibitory concentration (IC50) was 10 to 1000 nM.

Consider `COc1cccc(Cc2n[nH]c3cc(O)c(C(=O)N4Cc5ccccc5C4)cc23)c1` [Compound A3, 5-(1,3-Dihydroisoindol-2-ylcarbonyl)-3-(3-methoxybenzyl)-6-hydroxy-1H-indazole], for which the IC50 was 10 to 1000 nM.

For the compound `CCCCc1n[nH]c2cc(O)c(C(=O)N3Cc4ccccc4C3)cc12` [Compound A4, 5-(1,3-Dihydroisoindol-2-ylcarbonyl)-3-butyl-6-hydroxy-1H-indazole], the IC50 fell in the range of 10 to 1000 nM.

With `O=C(c1cc2c(Cc3cccc(Cl)c3)n[nH]c2cc1O)N1CCC(O)C1` (stereo not drawn) [Compound A5, 5-(3-Hydroxypyrrolidin-1-ylcarbonyl)-3-(3-chlorobenzyl)-6-hydroxy-1H-indazole], the IC50 is 10 to 1000 nM.

Turning to `O=C(c1cc2c(Cc3cccc(Cl)c3)n[nH]c2cc1O)N1CC[C@@H](O)C1` [Compound A7, 5-((R)-3-Hydroxypyrrolidin-1-ylcarbonyl)-3-(3-chlorobenzyl)-6-hydroxy-1H-indazole], the IC50 lay within 10 to 1000 nM.

On to `Cc1cccc(Cc2n[nH]c3cc(O)c(C(=O)N4CCOCC4)cc23)c1` [Compound A10], for which the IC50 lay in the range of 10 to 1000 nM.

With `Cc1cccc(Cc2n[nH]c3cc(O)c(C(=O)N4CCc5ccccc54)cc23)c1` [Compound A11], the IC50 lay in the range of 10 to 1000 nM.

With `CCCCc1n[nH]c2cc(O)c(C(=O)N3Cc4ccc(Br)cc4C3)cc12` [Compound A14, 5-(5-Bromo-1,3-dihydroisoindol-2-ylcarbonyl)-3-butyl-6-hydroxy-1H-indazole], the IC50 was in the range of 1000 to 10000 nM.

As for `CCCc1n[nH]c2cc(O)c(C(=O)N3Cc4ccc(Br)cc4C3)cc12` [Compound A15, 5-(5-Bromo-1,3-dihydroisoindol-2-ylcarbonyl)-3-propyl-6-hydroxy-1H-indazole], the half-inhibitory concentration (IC50) was 10 to 1000 nM.

As to `Cc1cccc(Cc2n[nH]c3cc(O)c(C(=O)N4CCCC4)cc23)c1` [Compound A16, 5-(Pyrrolidin-1-ylcarbonyl)-3-(3-methylbenzyl)-6-hydroxy-1H-indazole], the half-inhibitory concentration (IC50) fell in the range of 10 to 1000 nM.

On to `Cc1cccc(Cc2n[nH]c3cc(O)c(C(=O)N4CCN(C)CC4)cc23)c1` [Compound A17], for which the IC50 lay within 10 to 1000 nM.

Take `O=C(c1cc2c(CC3CCCC3)n[nH]c2cc1O)N1Cc2ccccc2C1` [Compound A18, 5-(1,3-Dihydroisoindol-2-ylcarbonyl)-3-cyclopentylmethyl-6-hydroxy-1H-indazole]: the IC50 is 10 to 1000 nM.

On to `CCCc1n[nH]c2cc(O)c(C(=O)N3Cc4ccc(N5CCOCC5)cc4C3)cc12` [Compound A19], for which the IC50 lay in the range of 10 to 1000 nM.

Consider `CCCc1n[nH]c2cc(O)c(C(=O)N3Cc4ccc(N5CCN(C)CC5)cc4C3)cc12` [Compound A20], for which the IC50 was in the range of 10 to 1000 nM.

`CCCc1n[nH]c2cc(O)c(C(=O)N3Cc4ccc(OCCN(C)C)cc4C3)cc12` [Compound A26, [5-(2-dimethylaminoethoxy)-1,3-dihydroisoindol-2-yl]-(6-hydroxy-3-propyl-1H-indazol-5-yl)methanone]: the IC50 lay in the range of 10 to 1000 nM.

With `CC(C)CCc1n[nH]c2cc(O)c(C(=O)N3Cc4ccc(OCCN(C)C)cc4C3)cc12` [Compound A27, [5-(2-dimethylaminoethoxy)-1,3-dihydroisoindol-2-yl]-[6-hydroxy-3-(3-methylbutyl)-1H-indazol-5-yl]methanone], the IC50 fell in the range of 10 to 1000 nM.

Turning to `CN(C)CCOc1ccc2c(c1)CN(C(=O)c1cc3c(CC4CCCC4)n[nH]c3cc1O)C2` [Compound A28, (3-cyclopentylmethyl-6-hydroxy-1H-indazol-5-yl)-[5-(2-dimethylaminoethoxy)-1,3-dihydroisoindol-2-yl]methanone], the IC50 was in the range of 10 to 1000 nM.

In the case of `CN(C)CCOc1ccc2c(c1)CN(C(=O)c1cc3c(CC4CCCCC4)n[nH]c3cc1O)C2` [Compound A29, (3-cyclohexylmethyl-6-hydroxy-1H-indazol-5-yl)-[5-(2-dimethylaminoethoxy)-1,3-dihydroisoindol-2-yl]methanone], the IC50 fell in the range of 10 to 1000 nM.

For `CC(C)CCc1n[nH]c2cc(O)c(C(=O)N3Cc4ccc(OC5CCN(C)CC5)cc4C3)cc12` [Compound A30, [6-hydroxy-3-(3-methylbutyl)-1H-indazol-5-yl]-[5-(1-methylpiperidin-4-yloxy)-1,3-dihydroisoindol-2-yl]methanone], the 50% inhibitory concentration (IC50) lay within 10 to 1000 nM.

In the case of `CN1CCC(Oc2ccc3c(c2)CN(C(=O)c2cc4c(CC5CCCC5)n[nH]c4cc2O)C3)CC1` [Compound A31, (3-cyclopentylmethyl-6-hydroxy-1H-indazol-5-yl)-[5-(1-methylpiperidin-4-yloxy)-1,3-dihydroisoindol-2-yl]methanone], the IC50 is 10 to 1000 nM.

For the compound `CN1CCC(Oc2ccc3c(c2)CN(C(=O)c2cc4c(CC5CCCCC5)n[nH]c4cc2O)C3)CC1` [Compound A32, (3-Cyclohexylmethyl-6-hydroxy-1H-indazol-5-yl)-[5-(1-methylpiperidin-4-yloxy)-1,3-dihydroisoindol-2-yl]methanone], the IC50 is 10 to 1000 nM.

Turning to `CC(C)CCc1n[nH]c2cc(O)c(C(=O)N3Cc4ccc(OCCCN(C)C)cc4C3)cc12` [Compound A33, [5-(3-Dimethylaminopropoxy)-1,3-dihydroisoindol-2-yl]-[6-hydroxy-3-(3-methylbutyl)-1H-indazol-5-yl]methanone], the IC50 lay within 10 to 1000 nM.

For `CN(C)CCCOc1ccc2c(c1)CN(C(=O)c1cc3c(CC4CCCC4)n[nH]c3cc1O)C2` [Compound A34], the IC50 fell in the range of 10 to 1000 nM.

As for `CN(C)CCCOc1ccc2c(c1)CN(C(=O)c1cc3c(CC4CCCCC4)n[nH]c3cc1O)C2` [Compound A35, (3-Cyclohexylmethyl-6-hydroxy-1H-indazol-5-yl)-[5-(3-dimethylaminopropoxy)-1,3-dihydroisoindol-22-yl]methanone], the IC50 fell in the range of 10 to 1000 nM.

In the case of `CCN(C)CCOc1ccc2c(c1)CN(C(=O)c1cc3c(CCC(C)C)n[nH]c3cc1O)C2` [Compound A36, {5-[2-(Ethylmeethylamino)ethoxy]-1,3-dihydroisoindol-22-yl}-[6-hydroxy-3-(3-methylbutyl)-1H-indazol-5-yl]methanone], the IC50 was 10 to 1000 nM.

Regarding `CCN(C)CCOc1ccc2c(c1)CN(C(=O)c1cc3c(CC4CCCC4)n[nH]c3cc1O)C2` [Compound A37, (3-Cyclopentylmethyl-6-hydroxy-1H-indazol-5-yl)-{5-[2-(ethylmethylamino)ethoxy]-1,3-dihydroisoindol-2-yl}methanone], the IC50 was 10 to 1000 nM.

Turning to `CCN(C)CCOc1ccc2c(c1)CN(C(=O)c1cc3c(CC4CCCCC4)n[nH]c3cc1O)C2` [Compound A38, (3-Cyclohexylmethyl-6-hydroxy-1H-indazol-5-yl)-{5-[2-(ethylmethylamino)ethoxy]-1,3-dihydroisoindol-2-yl}methanone], the IC50 lay in the range of 10 to 1000 nM.

On to `CC(C)CCc1n[nH]c2cc(O)c(C(=O)N3Cc4ccc(OCCN5CCCCC5)cc4C3)cc12` [Compound A39, [6-Hydroxy-3-(3-methylbutyl)-1H-indazol-5-yl]-[5-(2-piperidin-1-ylethoxy)-1,3-dihydroisoindol-2-yl]methanone], for which the IC50 lay in the range of 10 to 1000 nM.

Take `O=C(c1cc2c(CC3CCCC3)n[nH]c2cc1O)N1Cc2ccc(OCCN3CCCCC3)cc2C1` [Compound A40, (3-Cyclopentylmethyl-6-hydroxy-1H-indazol-5-yl)-[5-(2-piperidin-1-ylethoxy)-1,3-dihydroisoindol-2-yl]methanone]: the IC50 lay within 10 to 1000 nM.

Regarding `O=C(c1cc2c(CC3CCCCC3)n[nH]c2cc1O)N1Cc2ccc(OCCN3CCCCC3)cc2C1` [Compound A41, (3-Cyclohexylmethyl-6-hydroxy-1H-indazol-5-yl)-[5-(2-piperidin-1-ylethoxy)-1,3-dihydroisoindol-2-yl]methanone], the IC50 was 10 to 1000 nM.

For the compound `N#CCCCOc1ccc2c(c1)CN(C(=O)c1cc3c(CC4CCCC4)n[nH]c3cc1O)C2` [Compound A43, 4-[2-(3-Cyclopentylmethyl-6-hydroxy-1H-indazole-5-carbonyl)-2,3-dihydro-1H-isoindol-5-yloxy]butyronitrile], the IC50 lay in the range of 10 to 1000 nM.

With `O=C(c1cc2c(CC3CCCCC3)n[nH]c2cc1O)N1Cc2ccc(OCCN3CCOCC3)cc2C1` [Compound A47, (3-Cyclohexylmethyl-6-hydroxy-1H-indazol-5-yl)-[5-(2-morpholin-4-ylethoxy)-1,3-dihydroisoindol-2-yl]methanone], the IC50 was in the range of 10 to 1000 nM.

Consider `CCCc1n[nH]c2cc(O)c(C(=O)N3Cc4ccccc4C3C(=O)NCC)cc12` (stereo not drawn) [Compound A48, N-Ethyl-2-(6-hydroxy-3-propyl-1H-indazole-5-carbonyl)-2,3-dihydro-1H-isoindole-1-carboxamide], for which the IC50 is 1000 to 10000 nM.

Take `CC(C)Cc1n[nH]c2cc(O)c(C(=O)N3Cc4ccccc4C3)cc12` [Compound A49, (1,3-Dihydroisoindol-2-yl)(6-hydroxy-3-isobutyl-1H-indazol-5-yl)methanone]: the IC50 was 10 to 1000 nM.

With `O=C(c1cc2c(CC3CCCCC3)n[nH]c2cc1O)N1Cc2ccccc2C1` [Compound A50, (3-Cyclohexylmethyl-6-hydroxy-1H-indazol-5-yl)-(1,3-dihydroisoindol-2-yl)methanone], the IC50 was 10 to 1000 nM.
